{
  "source": "paper PMC9973015",
  "about": "(mBio, 2023)",
  "key": {"SARS-CoV-2 3CLpro E166V": {"test_system": "SARS-CoV-2 3CLpro E166V", "conditions": "cited from earlier work"}, "[1]": {"test_system": "SARS-CoV-2 3CLpro L50F (USA-WA1 background)", "type": "cell-based"}, "[2]": {"test_system": "SARS-CoV-2 3CLpro E166A L167F (USA-WA1 background)", "type": "cell-based", "conditions": "for EC50: read-out: E166A L167V EC50"}, "[3]": {"test_system": "SARS-CoV-2 3CLpro L50F E166A L167F (USA-WA1 background)", "type": "cell-based", "conditions": "read-out: L50F E166A L167V EC50"}, "[4]": {"molecular_target": "SARS-CoV-2 3CLpro L50F E166A L167F (Severe acute respiratory syndrome coronavirus 2, UniProt P0DTD1, E3429A/L3313F/L3430F)", "type": "biochemical"}, "[5]": {"test_system": "SARS-CoV-2 L50F E166A L167F", "type": "cell-based"}},
  "data": [
    {"molecule": "Cn1cnc(Cn2c(=O)[nH]/c(=N\\c3cc4cn(C)nc4cc3Cl)n(Cc3cc(F)c(F)cc3F)c2=O)n1", "note": "[Ensitrelvir, ensitrelvir]", "values": [
      {"measurement": "level of resistance conferred by E166V", "setting": "SARS-CoV-2 3CLpro E166V", "value": 23},
      {"measurement": "EC50", "setting": "[1]", "value": 0.24, "unit": "µM"},
      {"measurement": "L50F FC, fold change of EC50", "setting": "[1]", "value": "0.24 [1.1] (0.18–0.31)"},
      {"measurement": "E166A L167V FC, fold change of EC50", "setting": "[2]", "value": "8.0 [38] (2.8–12.7) (n = 4)"},
      {"measurement": "EC50", "setting": "[2]", "value": 8, "unit": "µM"},
      {"measurement": "EC50", "setting": "[3]", "value": 9.3, "unit": "µM"}
    ]},
    {"molecule": "COc1cccc2[nH]c(C(=O)N3C[C@@H]4CCC[C@@H]4[C@H]3C(=O)N[C@@H](C[C@@H]3CCCNC3=O)C(=O)CO)cc12", "note": "[ALG-097161, (1S,3aR,6aS)-N-((S)-4-Hydroxy-3-oxo-1-((S)-2-oxopiperidin-3-yl)butan-2-yl)-2-(4-methoxy-1H-indole-2-carbonyl)octahydrocyclopenta[c]pyrrole-1-carboxamide]", "values": [
      {"measurement": "low concentration that partially rescues impaired enzymatic activity of the mutants", "setting": "[4]", "value": "[…]"},
      {"measurement": "EC50", "setting": "[1]", "value": 0.98, "unit": "µM"},
      {"measurement": "EC50", "setting": "[2]", "value": 2.9, "unit": "µM"},
      {"measurement": "EC50", "setting": "[3]", "value": "[…]"}
    ]},
    {"molecule": "COc1cccc2[nH]c(C(=O)N[C@@H](CC(C)C)C(=O)N[C@@H](C[C@@H]3CCNC3=O)C(=O)CO)cc12", "note": "[PF-00835231]", "values": [
      {"measurement": "low concentration that partially rescues impaired enzymatic activity of the mutants", "setting": "[4]", "value": "around 0.05 μM"},
      {"measurement": "EC50", "setting": "[5]", "value": 4.4, "unit": "µM"}
    ]},
    {"molecule": "CC(C)(C)[C@H](NC(=O)C(F)(F)F)C(=O)N1C[C@H]2[C@@H]([C@H]1C(=O)N[C@H](C#N)C[C@@H]1CCNC1=O)C2(C)C", "note": "[Nirmatrelvir, nirmatrelvir]", "values": [
      {"measurement": "level of resistance conferred by E166V", "setting": "SARS-CoV-2 3CLpro E166V", "value": 100},
      {"measurement": "EC50", "setting": "[1]", "value": 0.16, "unit": "µM"},
      {"measurement": "EC50", "setting": "[5]", "value": 6.1, "unit": "µM"},
      {"measurement": "EC50", "setting": "[2]", "value": 1.1, "unit": "µM"},
      {"measurement": "EC50", "setting": "[3]", "value": 3.2, "unit": "µM"}
    ]}
  ]
}
